What was measured:
Format in all cases: in vivo
[1] = tested on: ivy-leaved morning glory (Ipomoea hederacea); test: Test G Post-Emergence Protocol; settings: Ipomoea, post-emergence, 312 h; for pest or weed control at 15.625 g/ha: 15.625 g ai/ha, evaluated after 13 days (100=total damage to plant; 0=no damage to plant), read-out: Morningglory, Ivy-leaved damage rating; for pest or weed control at 62.5 g/ha: 62.5 g ai/ha, read-out: Morningglory, Ivy-leaved damage rating (100=total damage to plant; 0=no damage to plant); for pest or weed control at 62.5 g/ha / pest or weed control at 250 g/ha: evaluated after 13 days; for pest or weed control at 250 g/ha: 250 g ai/ha, read-out: damage to plant, Morningglory, Ivy-leaved (100=total damage to plant; 0=no damage to plant)
Method in brief: (§1)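 Scores run 0 (no damage) to 100 (total damage) and were taken 13 days after spraying. Plants had been raised in pots for 8 days under glasshouse control (24/16 °C, 14 h photoperiod, 65% humidity) and then treated at 15.625, 62.5 or 250 g/ha.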

[2] = tested on: velvetleaf (Abutilon theophrasti); test: Test G Post-Emergence Protocol; settings: Abutilon theophrasti, post-emergence, 312 h; for pest or weed control at 15.625 g/ha: 15.625 g ai/ha, evaluated after 13 days (100=total damage to plant; 0=no damage to plant), read-out: Velvetleaf damage rating; for pest or weed control at 62.5 g/ha: 62.5 g ai/ha, read-out: Velvetleaf damage rating (100=total damage to plant; 0=no damage to plant); for pest or weed control at 62.5 g/ha / pest or weed control at 250 g/ha: evaluated after 13 days; for pest or weed control at 250 g/ha: 250 g ai/ha, read-out: damage to plant, Velvetleaf (100=total damage to plant; 0=no damage to plant)
Method in brief: as §1

[3] = tested on: giant foxtail (Setaria faberi); test: Test G Post-Emergence Protocol; settings: Setaria faberi, post-emergence, 312 h; for pest or weed control at 15.625 g/ha: 15.625 g ai/ha, evaluated after 13 days (100=total damage to plant; 0=no damage to plant), read-out: Foxtail, Giant damage rating; for pest or weed control at 62.5 g/ha: 62.5 g ai/ha, read-out: Foxtail, Giant damage rating (100=total damage to plant; 0=no damage to plant); for pest or weed control at 62.5 g/ha / pest or weed control at 250 g/ha: evaluated after 13 days; for pest or weed control at 250 g/ha: 250 g ai/ha, read-out: damage to plant, Foxtail, Giant (100=total damage to plant; 0=no damage to plant)
Method in brief: as §1

[4] = tested on: redroot pigweed (Amaranthus retroflexus); test: Test G Post-Emergence Protocol; settings: Amaranthus retroflexus, post-emergence, 312 h; for pest or weed control at 15.625 g/ha: 15.625 g ai/ha, evaluated after 13 days (100=total damage to plant; 0=no damage to plant), read-out: Pigweed, Redroot damage rating; for pest or weed control at 62.5 g/ha: 62.5 g ai/ha, read-out: Pigweed, Redroot damage rating (100=total damage to plant; 0=no damage to plant); for pest or weed control at 62.5 g/ha / pest or weed control at 250 g/ha: evaluated after 13 days; for pest or weed control at 250 g/ha: 250 g ai/ha, read-out: damage to plant, Pigweed, Redroot (100=total damage to plant; 0=no damage to plant)
Method in brief: as §1

[5] = tested on: barnyardgrass (Echinochloa crus-galli); test: Test G Post-Emergence Protocol; settings: Echinochloa crus-galli, post-emergence, 312 h; for pest or weed control at 15.625 g/ha: 15.625 g ai/ha, evaluated after 13 days (100=total damage to plant; 0=no damage to plant), read-out: Barnyardgrass damage rating; for pest or weed control at 62.5 g/ha: 62.5 g ai/ha, read-out: Barnyardgrass damage rating (100=total damage to plant; 0=no damage to plant); for pest or weed control at 62.5 g/ha / pest or weed control at 250 g/ha: evaluated after 13 days; for pest or weed control at 250 g/ha: 250 g ai/ha, read-out: damage to plant, Barnyardgrass (100=total damage to plant; 0=no damage to plant)
Method in brief: as §1

corn (Zea mays) [6] = test: Test G Post-Emergence Protocol; settings: Zea mays, post-emergence, 312 h; for plant injury at 15.625 g/ha: 15.625 g ai/ha, evaluated after 13 days (100=total damage to plant; 0=no damage to plant), read-out: Corn damage rating; for plant injury at 62.5 g/ha: 62.5 g ai/ha, read-out: Corn damage rating (100=total damage to plant; 0=no damage to plant); for plant injury at 62.5 g/ha / plant injury at 250 g/ha: evaluated after 13 days; for plant injury at 250 g/ha: 250 g ai/ha, read-out: damage to plant, Corn (100=total damage to plant; 0=no damage to plant)
Method in brief: as §1

[7] = tested on: ivy-leaved morning glory (Ipomoea hederacea); test: Test G Pre-Emergence Protocol; settings: Ipomoea, pre-emergence, 312 h, evaluated after 13 days; for pest or weed control at 15.625 g/ha: 15.625 g ai/ha, read-out: Morning-glory, Ivy-leaved damage rating (100=total damage to plant; 0=no damage to plant); for pest or weed control at 62.5 g/ha: 62.5 g ai/ha, 100=total damage to plant, 0=no damage to plant, read-out: plant damage rating, Morningglory, Ivy-leaved; for pest or weed control at 250 g/ha: 250 g ai/ha, read-out: Morningglory, Ivy-leaved damage rating (100=total damage to plant; 0=no damage to plant)
Method in brief: (§2)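 Under a 24/16° C day/night regime with 14 h light and 65% humidity, sown pots were sprayed after one day with compound (15.625, 62.5 or 250 g/ha; 50:50 acetone/water, 0.5% Tween 20). Damage was assessed visually 13 days later, 0 to 100.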

[8] = tested on: velvetleaf (Abutilon theophrasti); test: Test G Pre-Emergence Protocol; settings: Abutilon theophrasti, pre-emergence, 312 h, evaluated after 13 days; for pest or weed control at 15.625 g/ha: 15.625 g ai/ha; for pest or weed control at 15.625 g/ha / pest or weed control at 250 g/ha: read-out: Velvetleaf damage rating (100=total damage to plant; 0=no damage to plant); for pest or weed control at 62.5 g/ha: 62.5 g ai/ha, 100=total damage to plant, 0=no damage to plant, read-out: plant damage rating, Velvetleaf; for pest or weed control at 250 g/ha: 250 g ai/ha
Method in brief: as §2

[9] = tested on: giant foxtail (Setaria faberi); test: Test G Pre-Emergence Protocol; settings: Setaria faberi, pre-emergence, 312 h, evaluated after 13 days; for pest or weed control at 15.625 g/ha: 15.625 g ai/ha; for pest or weed control at 15.625 g/ha / pest or weed control at 250 g/ha: read-out: Foxtail, Giant damage rating (100=total damage to plant; 0=no damage to plant); for pest or weed control at 62.5 g/ha: 62.5 g ai/ha, 100=total damage to plant, 0=no damage to plant, read-out: plant damage rating, Foxtail, Giant; for pest or weed control at 250 g/ha: 250 g ai/ha
Method in brief: as §2

[10] = tested on: redroot pigweed (Amaranthus retroflexus); test: Test G Pre-Emergence Protocol; settings: Amaranthus retroflexus, pre-emergence, 312 h, evaluated after 13 days; for pest or weed control at 15.625 g/ha: 15.625 g ai/ha; for pest or weed control at 15.625 g/ha / pest or weed control at 250 g/ha: read-out: Pigweed, Redroot damage rating (100=total damage to plant; 0=no damage to plant); for pest or weed control at 62.5 g/ha: 62.5 g ai/ha, 100=total damage to plant, 0=no damage to plant, read-out: plant damage rating, Pigweed, Redroot; for pest or weed control at 250 g/ha: 250 g ai/ha
Method in brief: as §2

[11] = tested on: barnyardgrass (Echinochloa crus-galli); test: Test G Pre-Emergence Protocol; settings: Echinochloa crus-galli, pre-emergence, 312 h, evaluated after 13 days; for pest or weed control at 15.625 g/ha: 15.625 g ai/ha, read-out: Barnyard grass damage rating (100=total damage to plant; 0=no damage to plant); for pest or weed control at 62.5 g/ha: 62.5 g ai/ha, 100=total damage to plant, 0=no damage to plant, read-out: plant damage rating, Barnyardgrass; for pest or weed control at 250 g/ha: 250 g ai/ha, read-out: Barnyardgrass damage rating (100=total damage to plant; 0=no damage to plant)
Method in brief: as §2

corn (Zea mays) [12] = test: Test G Pre-Emergence Protocol; settings: Zea mays, pre-emergence, 312 h, evaluated after 13 days; for plant injury at 15.625 g/ha: 15.625 g ai/ha; for plant injury at 15.625 g/ha / plant injury at 250 g/ha: read-out: Corn damage rating (100=total damage to plant; 0=no damage to plant); for plant injury at 62.5 g/ha: 62.5 g ai/ha, 100=total damage to plant, 0=no damage to plant, read-out: plant damage rating, Corn; for plant injury at 250 g/ha: 250 g ai/ha
Method in brief: as §2

Structure (SMILES)	pest or weed control at 15.625 g/ha [1]	pest or weed control at 62.5 g/ha [1]	pest or weed control at 250 g/ha [1]	pest or weed control at 15.625 g/ha [2]	pest or weed control at 62.5 g/ha [2]	pest or weed control at 250 g/ha [2]	pest or weed control at 15.625 g/ha [3]	pest or weed control at 62.5 g/ha [3]	pest or weed control at 250 g/ha [3]	pest or weed control at 15.625 g/ha [4]	pest or weed control at 62.5 g/ha [4]	pest or weed control at 250 g/ha [4]	pest or weed control at 15.625 g/ha [5]	pest or weed control at 62.5 g/ha [5]	pest or weed control at 250 g/ha [5]	plant injury at 15.625 g/ha (corn (Zea mays) [6])	plant injury at 62.5 g/ha (corn (Zea mays) [6])	plant injury at 250 g/ha (corn (Zea mays) [6])	pest or weed control at 15.625 g/ha [7]	pest or weed control at 62.5 g/ha [7]	also measured
Cc1ccc(NC(=O)[C@@H]2C(=O)N(C)C[C@H]2c2ccc(C(F)(F)F)cc2)c(Cl)c1 (racemic) [Compound 1590]	0%	20%	30%	0%	0%	0%	0%	70%	80%	0%	0%	0%	0%	0%	30%	0%	0%	0%	0%	0%	pest or weed control at 250 g/ha [7]: 0%; pest or weed control at 15.625 g/ha [8]: 0%; pest or weed control at 62.5 g/ha [8]: 0%; pest or weed control at 250 g/ha [8]: 0%; pest or weed control at 15.625 g/ha [9]: 0%; pest or weed control at 62.5 g/ha [9]: 50%; pest or weed control at 250 g/ha [9]: 80%; pest or weed control at 15.625 g/ha [10]: 0%; pest or weed control at 62.5 g/ha [10]: 0%; pest or weed control at 250 g/ha [10]: 0%; pest or weed control at 15.625 g/ha [11]: 0%; pest or weed control at 62.5 g/ha [11]: 0%; pest or weed control at 250 g/ha [11]: 60%; plant injury at 15.625 g/ha (corn (Zea mays) [12]): 0%; plant injury at 62.5 g/ha (corn (Zea mays) [12]): 0%; plant injury at 250 g/ha (corn (Zea mays) [12]): 0%
Cc1nonc1NC(=O)[C@@H]1C(=O)N(C)C[C@H]1c1ccc(C(F)(F)F)cc1 (racemic) [Compound 1597]	0%	0%	0%	0%	0%	0%	0%	0%	0%	0%	0%	0%	0%	0%	0%	0%	0%	0%	0%	0%	pest or weed control at 250 g/ha [7]: 0%; pest or weed control at 15.625 g/ha [8]: 0%; pest or weed control at 62.5 g/ha [8]: 0%; pest or weed control at 250 g/ha [8]: 0%; pest or weed control at 15.625 g/ha [9]: 0%; pest or weed control at 62.5 g/ha [9]: 0%; pest or weed control at 250 g/ha [9]: 0%; pest or weed control at 15.625 g/ha [10]: 0%; pest or weed control at 62.5 g/ha [10]: 0%; pest or weed control at 250 g/ha [10]: 0%; pest or weed control at 15.625 g/ha [11]: 0%; pest or weed control at 62.5 g/ha [11]: 0%; pest or weed control at 250 g/ha [11]: 0%; plant injury at 15.625 g/ha (corn (Zea mays) [12]): 0%; plant injury at 62.5 g/ha (corn (Zea mays) [12]): 0%; plant injury at 250 g/ha (corn (Zea mays) [12]): 0%

Source: patent US12077503B2, “Substituted cyclic amides and their use as herbicides” (FMC CORPORATION, priority 2015, dated 2024)
